Data published in the kinase profiling compilation of Christmann-Franck et al. (2016).

Assays:
Test in all cases: KINOMEscan competition binding
Details in all cases: compound 10.0 µM
MAP2K2 (human) = MAP2K2 (human) (UniProt P36507)
PTK2 (human) = PTK2 (human) (UniProt Q05397)
NEK9 (human) = NEK9 (human) (UniProt Q8TD19)
NUAK2 (human) = NUAK2 (human) (UniProt Q9H093)
MARK2 (human) = MARK2 (human) (UniProt Q7KZI7)
CDK14 (human) = CDK14 (human) (UniProt O94921)
PRKCH (human) = PRKCH (human) (UniProt P24723)
CDK9 (human) = CDK9 (human) (UniProt P50750)
MAPK9 (human) = MAPK9 (human) (UniProt P45984)
LIMK2 (human) = LIMK2 (human) (UniProt P53671)
CAMK1G (human) = CAMK1G (human) (UniProt Q96NX5)
TSSK1B (human) = TSSK1B (human) (UniProt Q9BXA7)
Sequence of TSSK1B (human) (Q9BXA7 whole entry, looked up): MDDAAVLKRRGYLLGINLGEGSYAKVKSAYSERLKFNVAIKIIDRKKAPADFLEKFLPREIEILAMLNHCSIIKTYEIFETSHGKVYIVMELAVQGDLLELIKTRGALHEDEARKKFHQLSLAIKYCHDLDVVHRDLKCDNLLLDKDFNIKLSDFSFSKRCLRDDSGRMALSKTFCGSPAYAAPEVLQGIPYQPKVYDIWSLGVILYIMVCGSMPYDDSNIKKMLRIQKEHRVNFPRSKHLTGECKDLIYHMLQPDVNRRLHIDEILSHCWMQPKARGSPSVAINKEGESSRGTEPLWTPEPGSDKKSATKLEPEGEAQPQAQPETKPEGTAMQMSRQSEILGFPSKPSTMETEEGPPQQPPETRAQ

TEC (human) = TEC (human) (UniProt P42680)
TEK (human) = TEK (human) (UniProt Q02763)
MERTK (human) = MERTK (human) (UniProt Q12866)
RPS6KA1 KD1 (human) = RPS6KA1 KD1 (human) (UniProt Q15418)
STK32C (human) = STK32C (human) (UniProt Q86UX6)
SIK2 (human) = SIK2 (human) (UniProt Q9H0K1)
CSNK1A1L (human) = CSNK1A1L (human) (UniProt Q8N752)
INSRR (human) = INSRR (human) (UniProt P14616)
[1] = tested on: EGFR (human), P00533 [A750P; 747-749 del]
EPHB1 (human) = EPHB1 (human) (UniProt P54762)
Sequence of EPHB1 (human) (P54762 whole entry, looked up): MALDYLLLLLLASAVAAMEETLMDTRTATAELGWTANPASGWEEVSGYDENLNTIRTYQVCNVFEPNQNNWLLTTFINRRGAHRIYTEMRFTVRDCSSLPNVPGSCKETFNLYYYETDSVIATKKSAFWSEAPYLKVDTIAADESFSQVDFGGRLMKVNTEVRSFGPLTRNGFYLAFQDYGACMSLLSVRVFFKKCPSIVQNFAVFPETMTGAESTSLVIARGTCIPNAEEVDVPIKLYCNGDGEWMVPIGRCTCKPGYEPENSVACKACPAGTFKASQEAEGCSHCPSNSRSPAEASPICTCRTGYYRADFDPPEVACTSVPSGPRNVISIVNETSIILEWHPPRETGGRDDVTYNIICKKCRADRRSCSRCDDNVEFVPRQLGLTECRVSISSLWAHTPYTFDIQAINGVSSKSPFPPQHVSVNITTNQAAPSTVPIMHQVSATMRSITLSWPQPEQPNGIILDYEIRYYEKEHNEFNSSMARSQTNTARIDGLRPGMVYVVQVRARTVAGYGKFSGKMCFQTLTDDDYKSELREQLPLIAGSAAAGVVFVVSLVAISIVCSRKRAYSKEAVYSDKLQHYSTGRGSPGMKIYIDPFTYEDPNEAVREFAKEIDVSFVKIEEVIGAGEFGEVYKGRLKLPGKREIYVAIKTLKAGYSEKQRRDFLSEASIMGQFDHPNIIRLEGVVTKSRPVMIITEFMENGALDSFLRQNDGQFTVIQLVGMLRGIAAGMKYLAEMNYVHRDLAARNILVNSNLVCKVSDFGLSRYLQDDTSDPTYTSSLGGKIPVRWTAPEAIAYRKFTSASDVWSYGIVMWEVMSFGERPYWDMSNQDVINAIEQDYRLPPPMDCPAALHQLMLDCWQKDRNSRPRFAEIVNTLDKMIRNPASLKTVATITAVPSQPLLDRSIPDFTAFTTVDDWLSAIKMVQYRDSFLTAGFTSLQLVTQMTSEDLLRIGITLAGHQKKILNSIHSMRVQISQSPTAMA

CAMK4 (human) = CAMK4 (human) (UniProt Q16566)
EIF2AK2 (human) = EIF2AK2 (human) (UniProt P19525)
Sequence of EIF2AK2 (human) (P19525 whole entry, looked up): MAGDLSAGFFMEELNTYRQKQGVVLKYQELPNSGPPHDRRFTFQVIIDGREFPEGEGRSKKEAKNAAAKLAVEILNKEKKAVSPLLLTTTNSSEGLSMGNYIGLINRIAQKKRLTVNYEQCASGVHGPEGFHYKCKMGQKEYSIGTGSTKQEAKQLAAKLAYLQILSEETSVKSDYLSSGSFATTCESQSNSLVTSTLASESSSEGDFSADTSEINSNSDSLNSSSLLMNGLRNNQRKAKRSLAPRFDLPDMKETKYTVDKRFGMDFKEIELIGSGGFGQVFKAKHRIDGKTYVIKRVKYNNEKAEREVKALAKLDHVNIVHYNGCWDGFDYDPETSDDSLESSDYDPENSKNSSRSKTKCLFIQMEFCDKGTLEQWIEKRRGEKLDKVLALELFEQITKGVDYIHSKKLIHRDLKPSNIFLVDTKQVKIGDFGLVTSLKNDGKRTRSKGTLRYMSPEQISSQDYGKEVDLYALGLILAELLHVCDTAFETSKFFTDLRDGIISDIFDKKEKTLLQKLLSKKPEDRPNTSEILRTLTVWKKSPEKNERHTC

TLK2 (human) = TLK2 (human) (UniProt Q86UE8)
IGF1R (human) = IGF1R (human) (UniProt P08069)
MAP4K5 (human) = MAP4K5 (human) (UniProt Q9Y4K4)
MARK3 (human) = MARK3 (human) (UniProt P27448)
NUAK1 (human) = NUAK1 (human) (UniProt O60285)
Sequence of NUAK1 (human) (O60285 whole entry, looked up): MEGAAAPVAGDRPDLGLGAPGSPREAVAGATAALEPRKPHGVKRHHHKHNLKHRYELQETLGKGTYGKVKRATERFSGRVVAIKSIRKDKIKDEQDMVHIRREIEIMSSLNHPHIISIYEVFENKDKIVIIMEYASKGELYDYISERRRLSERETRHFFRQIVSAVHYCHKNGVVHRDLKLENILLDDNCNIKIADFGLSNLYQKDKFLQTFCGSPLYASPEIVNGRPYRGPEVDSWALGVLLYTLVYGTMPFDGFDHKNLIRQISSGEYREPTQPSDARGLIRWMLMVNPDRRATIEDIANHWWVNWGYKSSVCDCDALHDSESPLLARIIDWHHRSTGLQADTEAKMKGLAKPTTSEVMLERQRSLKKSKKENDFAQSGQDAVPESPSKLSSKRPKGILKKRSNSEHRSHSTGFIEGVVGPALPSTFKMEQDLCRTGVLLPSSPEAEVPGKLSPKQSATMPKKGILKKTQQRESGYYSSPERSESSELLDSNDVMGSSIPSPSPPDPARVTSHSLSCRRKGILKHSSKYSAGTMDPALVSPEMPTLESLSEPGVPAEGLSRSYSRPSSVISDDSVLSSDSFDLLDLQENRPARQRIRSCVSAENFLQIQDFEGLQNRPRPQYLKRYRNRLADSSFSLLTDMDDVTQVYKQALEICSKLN

IKBKB (human) = IKBKB (human) (UniProt O14920)
NEK5 (human) = NEK5 (human) (UniProt Q6P3R8)
MUSK (human) = MUSK (human) (UniProt O15146)
Sequence of MUSK (human) (O15146 whole entry, looked up): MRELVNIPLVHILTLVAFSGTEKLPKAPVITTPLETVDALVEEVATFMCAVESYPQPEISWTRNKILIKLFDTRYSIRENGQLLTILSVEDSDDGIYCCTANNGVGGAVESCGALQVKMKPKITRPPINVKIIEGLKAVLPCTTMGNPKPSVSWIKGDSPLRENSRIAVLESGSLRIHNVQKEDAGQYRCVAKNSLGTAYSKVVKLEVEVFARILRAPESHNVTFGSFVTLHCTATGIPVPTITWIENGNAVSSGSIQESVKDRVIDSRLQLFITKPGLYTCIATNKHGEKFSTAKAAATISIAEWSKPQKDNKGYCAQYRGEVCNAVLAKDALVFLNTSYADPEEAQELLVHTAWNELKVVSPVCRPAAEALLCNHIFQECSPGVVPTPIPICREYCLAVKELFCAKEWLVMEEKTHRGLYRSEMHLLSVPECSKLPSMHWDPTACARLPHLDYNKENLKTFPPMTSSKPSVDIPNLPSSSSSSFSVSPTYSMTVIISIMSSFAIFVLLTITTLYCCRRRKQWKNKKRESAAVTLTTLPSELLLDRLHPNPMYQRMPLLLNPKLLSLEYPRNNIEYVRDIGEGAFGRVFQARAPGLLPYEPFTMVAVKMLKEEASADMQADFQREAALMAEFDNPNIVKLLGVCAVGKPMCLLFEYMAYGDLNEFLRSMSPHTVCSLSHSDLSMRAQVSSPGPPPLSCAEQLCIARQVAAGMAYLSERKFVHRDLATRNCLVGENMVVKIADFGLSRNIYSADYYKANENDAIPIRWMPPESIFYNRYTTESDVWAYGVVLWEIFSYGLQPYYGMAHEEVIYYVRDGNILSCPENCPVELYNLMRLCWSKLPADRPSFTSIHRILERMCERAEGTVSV

TGFBR1 (human) = TGFBR1 (human) (UniProt P36897)
RAF1 (human) = RAF1 (human) (UniProt P04049)
CDC42BPB (human) = CDC42BPB (human) (UniProt Q9Y5S2)
[2] = tested on: FGFR3 (human), P22607 [G697C]
MAPK12 (human) = MAPK12 (human) (UniProt P53778)
PIK3C2B (human) = PIK3C2B (human) (UniProt O00750)
CDC2L2 (human) = CDC2L2 (human) (UniProt Q9UQ88)
STK32B (human) = STK32B (human) (UniProt Q9NY57)
MAPK6 (human) = MAPK6 (human) (UniProt Q16659)
RPS6KA4 KD1 (human) = RPS6KA4 KD1 (human) (UniProt O75676)
Sequence of RPS6KA4 KD1 (human) (O75676 whole entry, looked up): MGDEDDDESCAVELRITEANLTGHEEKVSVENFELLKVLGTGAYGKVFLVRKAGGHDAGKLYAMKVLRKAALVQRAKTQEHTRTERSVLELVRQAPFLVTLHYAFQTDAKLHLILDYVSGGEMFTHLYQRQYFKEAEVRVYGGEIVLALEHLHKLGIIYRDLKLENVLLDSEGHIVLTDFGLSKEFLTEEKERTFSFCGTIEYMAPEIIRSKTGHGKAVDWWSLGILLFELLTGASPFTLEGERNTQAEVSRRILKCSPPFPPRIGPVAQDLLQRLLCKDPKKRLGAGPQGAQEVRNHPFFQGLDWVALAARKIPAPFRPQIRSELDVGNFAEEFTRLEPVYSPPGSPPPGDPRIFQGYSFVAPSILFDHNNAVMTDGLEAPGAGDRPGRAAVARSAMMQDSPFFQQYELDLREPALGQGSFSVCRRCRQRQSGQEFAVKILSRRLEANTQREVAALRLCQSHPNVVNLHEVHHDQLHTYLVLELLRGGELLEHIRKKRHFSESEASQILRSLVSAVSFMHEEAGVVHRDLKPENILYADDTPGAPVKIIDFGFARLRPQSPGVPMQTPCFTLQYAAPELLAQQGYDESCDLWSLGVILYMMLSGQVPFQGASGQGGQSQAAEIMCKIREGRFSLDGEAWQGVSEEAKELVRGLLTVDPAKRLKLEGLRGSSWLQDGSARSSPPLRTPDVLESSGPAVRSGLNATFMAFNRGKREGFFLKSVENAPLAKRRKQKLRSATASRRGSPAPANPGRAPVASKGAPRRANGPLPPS

Sequence of NUAK2 (human) (Q9H093 whole entry, looked up): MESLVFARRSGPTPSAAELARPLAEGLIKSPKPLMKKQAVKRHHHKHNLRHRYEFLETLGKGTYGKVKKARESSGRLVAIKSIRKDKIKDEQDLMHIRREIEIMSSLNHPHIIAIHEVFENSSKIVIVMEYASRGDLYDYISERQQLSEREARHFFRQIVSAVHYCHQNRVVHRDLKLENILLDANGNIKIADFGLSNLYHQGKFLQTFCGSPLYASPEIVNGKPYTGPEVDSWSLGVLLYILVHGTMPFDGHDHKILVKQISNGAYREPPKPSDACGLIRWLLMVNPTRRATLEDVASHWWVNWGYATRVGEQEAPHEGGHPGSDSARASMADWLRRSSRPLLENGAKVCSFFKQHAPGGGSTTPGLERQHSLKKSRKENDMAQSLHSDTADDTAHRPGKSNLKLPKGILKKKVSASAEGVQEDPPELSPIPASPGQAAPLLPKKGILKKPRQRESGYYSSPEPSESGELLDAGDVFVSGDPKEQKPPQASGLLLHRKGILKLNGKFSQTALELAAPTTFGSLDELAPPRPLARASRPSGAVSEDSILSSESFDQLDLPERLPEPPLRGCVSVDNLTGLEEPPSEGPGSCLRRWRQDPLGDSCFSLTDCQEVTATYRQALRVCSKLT

kinase still bound, per cent of control (MAP2K2 (human)): 100%
kinase still bound, per cent of control (PTK2 (human)): 75%
kinase still bound, per cent of control (NUAK2 (human)): 23%
kinase still bound, per cent of control (MARK2 (human)): 51%
kinase still bound, per cent of control (CDK14 (human)): 100%
kinase still bound, per cent of control (PRKCH (human)): 100%
kinase still bound, per cent of control (CDK9 (human)): 100%
kinase still bound, per cent of control (MAPK9 (human)): 100%
kinase still bound, per cent of control (LIMK2 (human)): 100%
kinase still bound, per cent of control (CAMK1G (human)): 91%
kinase still bound, per cent of control (TSSK1B (human)): 100%
kinase still bound, per cent of control (TEC (human)): 100%
kinase still bound, per cent of control (TEK (human)): 72%
kinase still bound, per cent of control (MERTK (human)): 100%
kinase still bound, per cent of control (RPS6KA1 KD1 (human)): 66%
kinase still bound, per cent of control (STK32C (human)): 100%
kinase still bound, per cent of control (SIK2 (human)): 61%
kinase still bound, per cent of control (CSNK1A1L (human)): 98%
kinase still bound, per cent of control (INSRR (human)): 96%
kinase still bound, per cent of control [1]: 98%
kinase still bound, per cent of control (EPHB1 (human)): 100%
kinase still bound, per cent of control (CAMK4 (human)): 100%
kinase still bound, per cent of control (EIF2AK2 (human)): 100%
kinase still bound, per cent of control (TLK2 (human)): 100%
kinase still bound, per cent of control (IGF1R (human)): 100%
kinase still bound, per cent of control (MAP4K5 (human)): 85%
kinase still bound, per cent of control (MARK3 (human)): 60%
kinase still bound, per cent of control (NUAK1 (human)): 17%
kinase still bound, per cent of control (IKBKB (human)): 86%
kinase still bound, per cent of control (NEK5 (human)): 100%
kinase still bound, per cent of control (MUSK (human)): 100%
kinase still bound, per cent of control (TGFBR1 (human)): 73%
kinase still bound, per cent of control (RAF1 (human)): 100%
kinase still bound, per cent of control (CDC42BPB (human)): 100%
kinase still bound, per cent of control [2]: 81%
kinase still bound, per cent of control (MAPK12 (human)): 100%
kinase still bound, per cent of control (PIK3C2B (human)): 89%
kinase still bound, per cent of control (CDC2L2 (human)): 100%
kinase still bound, per cent of control (STK32B (human)): 100%
kinase still bound, per cent of control (MAPK6 (human)): 97%
kinase still bound, per cent of control (RPS6KA4 KD1 (human)): 100%
Compound: CN1C(=O)c2ccccc2N(C)c2nc(Nc3ccc(N4CCC(O)CC4)cc3)ncc21
kinase still bound, per cent of control (NEK9 (human)): 100%
